Reference: PMC8238948, “Potent inhibitors of toxic alpha-synuclein identified via cellular time-resolved FRET biosensors” (NPJ Parkinson's Disease, 2021)
pEC50, pIC50: −log10 of the molar value. “Also recorded” adds a separate entry of the source. Where a name gives a salt, the structure may show the parent alone. Read-outs that look alike come from different tables or passages of the source.

What was measured:
[1] = test system: SH-SY5Y cells overexpressing unlabeled wild-type (WT) αSN; experiment: CytoTox-Glo cytotoxicity assay: rescue of αSN-induced cytotoxicity; assay type: cell-based, human; conditions: for pEC50: read-out: EC50, protection of SH-SY5Y cells from αSN-induced death; for rescue of αSN-induced cytotoxicity: dose response, 48-h exposure; for rescue of toxicity in three-dose preliminary screen: three-dose assay
Description: Hit compounds were evaluated for rescue of αSN-induced cytotoxicity in using an SH-SY5Y neuroblastoma cell model of alpha-synucleinopathy[18],[69]–[72]. […] A seven-point CRC for RO, BAY, DEM, and Anle138b (positive control compound[41],[73]) was performed to determine IC50 for each compound. […]
Cell cytotoxicity was measured using the CytoTox-Glo (Promega Corporation) Luminescence Assay Kit. SH-SY5Y human neuroblastoma cells were plated at a density of 5 × 10^6 cells/plate in 100 mm plate (Corning) and transfected with unlabeled WT αSN or equivalent vector-only control for 24 h. The transfected cells were then plated at a density of 5000 cells/well in white solid 96-well plate (Corning) with a total volume of 100 μL, followed by treatment with hit compounds spanning a range of concentrations (0.1 nM to 100 μM), as well as DMSO-only controls, for another 48 h. After incubation, 50 μL of CytoTox-Glo Cytotoxicity Assay Reagent was added to all wells followed by mixing by orbital shaking and incubation in the dark for 15 min at RT. Luminescence readings were measured using a Cytation3 Cell Imaging Multi-Mode Reader luminometer (BioTek). After the first read, 50 μL of Lysis Reagent was added, incubated for 15 min at RT, and a second read performed. Total viable cellular luminance was determined by the difference between the first and second luminescence signal and total cellular viability is determined by normalizing to the no-treatment samples.

[2] = target: T1, recombinant αSN (Homo sapiens, UniProt P37840); experiment: Non-seeded Thioflavin-T assay (monomer induced aggregation); assay type: biochemical; conditions: 140 μM αSN monomer, 70 μM compound (1:2), 900 RPM, 37 °C
T1 construct: made in house; host or cells: Escherichia coli BL21(DE3), T7-7 plasmid
Description: ThT aggregation assays monitor the kinetics and extent of fibril formation due to spontaneous and seeded aggregation[26],[92]–[95]. The cascade of spontaneous αSN fibrillization includes formation and maturation of oligomeric αSN assemblies[96],[97]. Figure 10 presents spontaneous ThT aggregation for αSN(m) (140 µM) with or without hit compounds RO, DEM, and Bay (70 µM; a sub-stoichiometric ratio, 1:2, compound:protein).
Fig. 10 Monomer induced aggregation of αSN (non-seeded Thioflavin-T assay). Recombinant αSN was incubated at 140 μM monomer (70 μM compound) under continuous shaking (900 RPM) at 37 °C. All three hit compounds modulated αSN fibrillization with RO having a more significant effect over Bay and DEM, respectively.
ThT (Sigma, product no. T3516) was dissolved in PBS buffer and was filtered through a 0.2-µm syringe filter to make a stock solution of 2.5 mM. Working ThT concentration was 20 µM. PFF seeds were produced via constant agitation of 1000 RPM at 37 °C (ThermoMixer-C, Eppendorf, Hauppauge, NY) of 500 µL of 350 µM αSN in PBS in a 2 mL tube for 5 days. PFFs were aliquoted and flash frozen and stored at −80 °C until further use. PFF seeds were rapidly thawed, diluted to 35 µM in PBS, and sonicated 120 pulses at 50% using a probe-tip sonicator following the established protocols. Master mix samples for each of the different ThT assays were prepared and dispensed in triplicate as 50 µL in 384-well flat, black-bottom polypropylene plates (PN 781209, Greiner Bio-One) and sealed with fluorescently transparent film. Conditions for non-seeded, seeded, and cell homogenate assays varied slightly.
Non-seeded ThT master mix was prepared in cell culture PBS with 140 µM (2 mg/mL) αSN(m) and dispensed into compound plates at 70 µM final compound concentration (1:2 compound:protein ratio).

[3] = target: T2, A53T αSN oligomer (inter-protomeric) FRET biosensor in HEK293 cells (Homo sapiens, UniProt P37840, A53T); experiment: FLT dose response, A53T oligomer (inter-protomeric) FRET biosensor; assay type: cell-based; conditions: 1 nM to 50 μM
T2 construct: In addition to full-length αSN fusion constructs, we observe both C-terminally and N-terminally truncated αSN species; expressed in transfected cells; host or cells: HEK293
Description: Hits from the pilot HTS of the LOPAC library were selected and dispensed into 384-well plates to verify reproducible and specific FLT trends using the WT and A53T oligomer (inter-protomeric) FRET biosensors. Figure 6 presents a subset of these dose-response curves for hit compounds RO, BAY, SB206553, and DEM, along with known control compound EGCG. […] Assay quality was determined by Z′ (Eq. 2) where a Z′ > 0.5 indicates good assay quality. Using EGCG as control compound and the hit DEM, we calculated Z′ value of 0.76 and 0.66, respectively, indicating excellent assay quality.
Fig. 6 FRET dose response of pilot HTS hits. A subset of hits were evaluated using both WT (a) and A53T (b) oligomer biosensor to verify both increased FLT (disrupting αSN–αSN interactions) and decreased FLT (tighter aggregation or remodeled oligomers).
Compounds were tested in a FLT dose-response assay. The compound was dissolved to 10 mM in DMSO, then serially diluted in 96-well mother plates. Each hit was re-screened for FLT dose response across eight concentrations (1 nM to 50 μM). Compounds (0.5 μL) were transferred from mother plates into assay plates using a Mosquito HV liquid handler (TTP Labtech Ltd, UK). The preparations for αSN FRET biosensors were carried out as above.

[4] = test system: SH-SY5Y cells transfected with unlabeled WT αSN; experiment: αSN expression levels in SH-SY5Y cells (immunoblot); assay type: cell-based, human; conditions: 1 μM compound; relative to DMSO
Description: We investigated one potential MOA for compounds RO and DEM in our SH-SY5Y cytotoxicity model. These compounds might rescue αSN-induced cytotoxicity by modulating αSN expression[81],[82]. SH-SY5Y cells transfected with empty-vector or unlabeled WT αSN were treated with DMSO, RO, or DEM at 1 μM concentration. […] This effect may be due to prolonged survival of cells expressing higher levels of αSN, which would be lost in DMSO-treated samples or as a result of shifting monomer:oligomer ratios. Studies have shown that there is a fine balance in αSN expression, where too much can lead to aggregation, but αSN expression can also be neuroprotective[81],[83]–[86].
Supplemental Figure 15. Rescue of αSN-induced cytotoxicity in SH-SY5Y cells is not driven by suppression of αSN expression. One potential MOA for our hit compounds could be reduction of αSN levels, thereby alleviating the αSN induced cytotoxicity. (a) Treatment of SH-SY5Y cells expressing either αSN or […]
DMSO for both RO and DEM. (b) Quantification of a via densitometry analysis.
(1 picture or pasted object on this page, not shown here)

| SMILES | pEC50 ([1]; Homo sapiens, SH-SY5Y, 72-h transfection, 48-h exposure to compound, seven-point CRC) | pIC50 ([1]; Homo sapiens, SH-SY5Y, 72-h transfection, 48-h exposure to compound, seven-point CRC, read-out: IC50, inhibition of αSN-induced toxicity) | rescue of αSN-induced cytotoxicity [1] | rescue of toxicity in three-dose preliminary screen [1] | ThT signal, spontaneous (non-seeded) aggregation [2] | FLT trend in dose response [3] | total αSN expression levels [4] | pEC50 ([1]; 72-h transfection, 48-h exposure to compound, seven-point CRC) |
| --- | --- | --- | --- | --- | --- | --- | --- | --- |
| CN(C)[C@@H]1C(O)=C(C(N)=O)C(=O)[C@@]2(O)C(O)=C3C(=O)c4c(O)ccc(Cl)c4[C@@H](O)[C@H]3C[C@@H]12 [DEM, Demeclocycline HCl] | 7.19 | 7.19 | clear dose-dependent rescue of toxicity | strong response | lesser degrees of attenuation | reduced FLT | no change | – |
| Nc1ccc(-c2nc3ccc(-c4nc5ccc(N)cc5[nH]4)cc3[nH]2)cc1 [RO, Ro 90–7501] | – | – | clear dose-dependent rescue of toxicity | strong response | significant ThT signal reduction | reduced FLT | no change | 7.11 |
| COC(=O)C1=C(C)NC(C)=C([N+](=O)[O-])C1c1ccccc1C(F)(F)F (racemic) [BAY, (±)-Bay K 8644] | – | – | reduced effect; also recorded: did not rescue | only mild recovery | lesser degrees of attenuation | reduced FLT | – | – |
